Where two headings read alike, the source gives them in different places.
Tests used:
RSV-A2-GFP virus = test: microbe, parasite or virus in culture; type: cell-based, Human Respiratory Syncytial Virus
Method in brief: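 IC50 (GFP-expressing cell counts by Acumen imaging) and CC50 (same-well CellTiter-Glo) were obtained by 4-parameter logistic fitting. Compounds were tested in 10-point 3-fold series for 96 h at 37° C, 5% CO2. Thawed Calu-1 ARF cells were infected at MOI 1.2 with GFP-reporter RSV-A2 in 2% FBS DMEM.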

hMPV-GFP virus = test: microbe, parasite or virus in culture; type: cell-based, human metapneumovirus
Method in brief: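 Antiviral IC50 was derived from imaging counts of GFP-expressing cells, with CC50 from a same-well CellTiter-Glo read, both by 4-parameter logistic fitting. VERO cells plus hMPV-GFP (MOI 1.25) were exposed 48 h at 37 °C to 10-point 3-fold compound dilutions (typical final 40,300–2 nM).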

[1] = Calu-1 cells infected with RSV-A2-GFP, 96 hrs, GFP-expressing cells counted, read-out: RSV EC50
[2] = VERO cells infected with hMPV-GFP, 48 hrs, GFP-expressing cells counted, read-out: hMPV EC50
[3] = human respiratory syncytial virus, Calu-1, 96 h, read-out: RSV EC50, Calu-1 cells infected with RSV-A2-GFP, 96 hrs, GFP-expressing cells counted
[4] = human metapneumovirus, Vero, 48 h, read-out: hMPV EC50, VERO cells infected with hMPV-GFP, 48 hrs, GFP-expressing cells counted

SMILES	EC50 (RSV-A2-GFP virus; [1])	EC50 (hMPV-GFP virus; [2])	EC50 (RSV-A2-GFP virus; [3])	EC50 (hMPV-GFP virus; [4])
Cc1nc(-c2ncccn2)sc1C(=O)N1C[C@@H]2[C@H](C1)[C@H]2Oc1cc(C(C)(C)N)cc(C2=CCC3(CCC3)CC2)n1 [Example 48, ((1R,5S,6s)-6-((4-(2-aminopropan-2-yl)-6-(spiro[3.5]non-6-en-7-yl)pyridin-2-yl)oxy)-3-azabicyclo[3.1.0]hexan-3-yl)(4-methyl-2-(pyrimidin-2-yl)thiazol-5-yl)methanone]	< 10 nM	> 100 nM		
CC(C)(N)c1cc(O[C@H]2[C@@H]3CN(C(=O)c4sc(-c5ncccn5)nc4C(F)F)C[C@@H]32)nc(-c2ccc(F)cc2)c1 [Example 49, ((1R,5S,6s)-6-((4-(2-aminopropan-2-yl)-6-(4-fluorophenyl)pyridin-2-yl)oxy)-3-azabicyclo[3.1.0]hexan-3-yl)(4-(difluoromethyl)-2-(pyrimidin-2-yl)thiazol-5-yl)methanone]			< 10 nM	10 to 100 nM
Cn1nc(-c2cccc(F)n2)cc1C(=O)N1C[C@@H]2[C@H](C1)[C@H]2Oc1cc(C(C)(C)N)cc(-c2ccc(F)cc2)n1 [Example 50, ((1R,5S,6s)-6-((4-(2-aminopropan-2-yl)-6-(4-fluorophenyl)pyridin-2-yl)oxy)-3-azabicyclo[3.1.0]hexan-3-yl)(3-(6-fluoropyridin-2-yl)-1-methyl-1H-pyrazol-5-yl)methanone]			< 10 nM	10 to 100 nM
Cc1cccc(-c2cc(C(=O)N3C[C@@H]4[C@H](C3)[C@H]4Oc3cc(C(C)(C)N)cc(-c4ccc(F)cc4)n3)n(C)n2)n1 [Example 51, ((1R,5S,6s)-6-((4-(2-aminopropan-2-yl)-6-(4-fluorophenyl)pyridin-2-yl)oxy)-3-azabicyclo[3.1.0]hexan-3-yl)(1-methyl-3-(6-methylpyridin-2-yl)-1H-pyrazol-5-yl)methanone]	< 10 nM	> 100 nM		
Cn1nc(-c2ncccn2)cc1C(=O)N1C[C@@H]2[C@H](C1)[C@H]2Oc1cc(C(C)(C)N)cc(-c2ccc(F)cc2)n1 [Example 52, ((1R,5S,6s)-6-((4-(2-aminopropan-2-yl)-6-(4-fluorophenyl)pyridin-2-yl)oxy)-3-azabicyclo[3.1.0]hexan-3-yl)(1-methyl-3-(pyrimidin-2-yl)-1H-pyrazol-5-yl)methanone]			< 10 nM	> 100 nM
Cn1nc(-c2ncccn2)c(Cl)c1C(=O)N1C[C@@H]2[C@H](C1)[C@H]2Oc1cc(C(C)(C)N)cc(-c2ccc(F)cc2)n1 [Example 53, ((1R,5S,6s)-6-((4-(2-aminopropan-2-yl)-6-(4-fluorophenyl)pyridin-2-yl)oxy)-3-azabicyclo[3.1.0]hexan-3-yl)(4-chloro-1-methyl-3-(pyrimidin-2-yl)-1H-pyrazol-5-yl)methanone]			< 10 nM	> 100 nM
Cn1nc(-c2ncccn2)c(F)c1C(=O)N1C[C@@H]2[C@H](C1)[C@H]2Oc1cc(C(C)(C)N)cc(-c2ccc(F)cc2)n1 [Example 54, ((1R,5S,6s)-6-((4-(2-aminopropan-2-yl)-6-(4-fluorophenyl)pyridin-2-yl)oxy)-3-azabicyclo[3.1.0]hexan-3-yl)(4-fluoro-1-methyl-3-(pyrimidin-2-yl)-1H-pyrazol-5-yl)methanone]			< 10 nM	> 100 nM
Cn1nc(-c2ncccn2)cc1C(=O)N1C[C@@H]2[C@H](C1)[C@H]2Oc1cc(C(C)(C)N)cc(-c2ccc(F)c(F)c2)n1 [Example 55, ((1R,5S,6s)-6-((4-(2-aminopropan-2-yl)-6-(3,4-difluorophenyl)pyridin-2-yl)oxy)-3-azabicyclo[3.1.0]hexan-3-yl)(1-methyl-3-(pyrimidin-2-yl)-1H-pyrazol-5-yl)methanone]			< 10 nM	> 100 nM
Cn1nc(-c2ncccn2)cc1C(=O)N1C[C@@H]2[C@H](C1)[C@H]2Oc1cc(C(C)(C)N)cc(-c2ccc(F)c(Cl)c2)n1 [Example 56, ((1R,5S,6s)-6-((4-(2-aminopropan-2-yl)-6-(3-chloro-4-fluorophenyl)pyridin-2-yl)oxy)-3-azabicyclo[3.1.0]hexan-3-yl)(1-methyl-3-(pyrimidin-2-yl)-1H-pyrazol-5-yl)methanone]	< 10 nM	> 100 nM		
Cn1nc(-c2ncccn2)cc1C(=O)N1C[C@@H]2[C@H](C1)[C@H]2Oc1cc(C(C)(C)N)cc(-c2ccc(F)cc2Cl)n1 [Example 57, ((1R,5S,6s)-6-((4-(2-aminopropan-2-yl)-6-(2-chloro-4-fluorophenyl)pyridin-2-yl)oxy)-3-azabicyclo[3.1.0]hexan-3-yl)(1-methyl-3-(pyrimidin-2-yl)-1H-pyrazol-5-yl)methanone]	< 10 nM	> 100 nM		
Cn1nc(-c2ncccn2)cc1C(=O)N1C[C@@H]2[C@H](C1)[C@H]2Oc1cc(C(C)(C)N)cc(-c2ccc(Cl)cc2)n1 [Example 58, ((1R,5S,6s)-6-((4-(2-aminopropan-2-yl)-6-(4-chlorophenyl)pyridin-2-yl)oxy)-3-azabicyclo[3.1.0]hexan-3-yl)(1-methyl-3-(pyrimidin-2-yl)-1H-pyrazol-5-yl)methanone]	< 10 nM	10 to 100 nM		
Cn1nc(-c2ncccn2)cc1C(=O)N1C[C@@H]2[C@H](C1)[C@H]2Oc1cc(C(C)(C)N)cc(-c2ccc(C(F)(F)F)cc2)n1 [Example 59, ((1R,5S,6s)-6-((4-(2-aminopropan-2-yl)-6-(4-(trifluoromethyl)phenyl)pyridin-2-yl)oxy)-3-azabicyclo[3.1.0]hexan-3-yl)(1-methyl-3-(pyrimidin-2-yl)-1H-pyrazol-5-yl)methanone]	< 10 nM	10 to 100 nM		
Cn1nc(-c2ncccn2)cc1C(=O)N1C[C@@H]2[C@H](C1)[C@H]2Oc1cc(C(C)(C)N)cc(-n2ccc3c(F)cccc32)n1 [Example 60, ((1R,5S,6s)-6-((4-(2-aminopropan-2-yl)-6-(4-fluoro-1H-indol-1-yl)pyridin-2-yl)oxy)-3-azabicyclo[3.1.0]hexan-3-yl)(1-methyl-3-(pyrimidin-2-yl)-1H-pyrazol-5-yl)methanone]			< 10 nM	10 to 100 nM
Cc1nn(-c2ncccn2)cc1C(=O)N1C[C@@H]2[C@H](C1)[C@H]2Oc1cc(C(C)(C)N)cc(-c2ccc(F)cc2)n1 [Example 61, ((1R,5S,6s)-6-((4-(2-aminopropan-2-yl)-6-(4-fluorophenyl)pyridin-2-yl)oxy)-3-azabicyclo[3.1.0]hexan-3-yl)(3-methyl-1-(pyrimidin-2-yl)-1H-pyrazol-4-yl)methanone]			< 10 nM	> 100 nM
COc1nn(-c2ncccn2)cc1C(=O)N1C[C@@H]2[C@H](C1)[C@H]2Oc1cc(C(C)(C)N)cc(-c2ccc(F)cc2)n1 [Example 62, ((1R,5S,6s)-6-((4-(2-aminopropan-2-yl)-6-(4-fluorophenyl)pyridin-2-yl)oxy)-3-azabicyclo[3.1.0]hexan-3-yl)(3-methoxy-1-(pyrimidin-2-yl)-1H-pyrazol-4-yl)methanone]			< 10 nM	> 100 nM
CC(C)(N)c1cc(O[C@H]2[C@@H]3CN(C(=O)c4cnn(-c5ncccn5)c4)C[C@@H]32)nc(-c2ccc(F)cc2)c1 [Example 63, ((1R,5S,6s)-6-((4-(2-aminopropan-2-yl)-6-(4-fluorophenyl)pyridin-2-yl)oxy)-3-azabicyclo[3.1.0]hexan-3-yl)(1-(pyrimidin-2-yl)-1H-pyrazol-4-yl)methanone]	< 10 nM	> 100 nM		

From patent US12643882B2, “Inhibitors of human respiratory syncytial virus and metapneumovirus” (priority 2022, dated 2026)
